Measured values as given in patent publication USRE47475E1, “Selective agents for pain suppression” (WiSys Technology Foundation, Inc., priority 2002, dated 2019).
pKi: −log10 of the molar value. Read-outs that look alike come from different tables or passages of the source.

Key:
[1] = test system: GABAA receptors of superficial dorsal horn neurons; experiment: whole-cell patch-clamp of GABA-induced currents in spinal cord slices; format: cell-based, mice; details: diazepam 1 μM
Experimental: Electrophysiology of Spinal Cord Slices. […] GABAergic membrane currents are recorded from superficial dorsal horn neurons (laminae I and II) as described previously. […] GABA-induced currents are recorded from capsaicin sensitive DRG neurons 3-30 h after plating. Whole-cell patch-clamp recordings are performed from neurons identified under visual control using the infrared gradient contrast technique coupled to a video microscopy system. In both preparations, GABA (1 mM) is applied to the some of the recorded neuron via a glass pipette by short (10 ms) electronically controlled puffer applications at a frequency of 0.07 Hz.
Spinal cord GABAA receptors: Whole-cell patch-clamp electrophysiology recordings are performed in spinal cord slices of GABAA receptor mutant mice and of corresponding wt mice. […] GABA-induced membrane currents are evoked by external application of GABA (3 mM) to neurons located in the superficial layers (lamina I and II) of the spinal cord dorsal horn.

[2] = test system: rhesus monkeys; experiment: conflict model of anxiolytic activity which also measures sedation; format: in vivo
Experimental: The data in FIGS. 21A-21F reflect the ability of the compounds or drugs to exert an anxioyic effect in rhesus monkeys (J. Rowlett, J. M. Cook et al., unpublished results) when given intravenously in propylene glycol/water solution. This is the conflict model of anxiolytic activity which also measures sedation. […] In FIG. 21B, SH-053-2′F (JY-XHE-053) is anxiolytic at a dose of greater than 0.13 mg/kg, but exerts only some slight sedation at doses greater than 1.2 mg/kg (responses decrease). In FIG. 21C it is clear the S-enantiomer of SH-053-2′F—S—CH3 is anxiolytic with no sedation up to 10-18 mg/kg, which is the highest dose tested.

[3] = test system: Formalin Pain (mouse, i.p.); experiment: T22 formalin test (chemically induced pain); format: in vivo; details: for protection at the acute phase of chemically induced pain: formalin test; for Change (% of Control) ± SEM, T22 Formalin Pain, Acute / Change (% of Control) ± SEM, T22 Formalin Pain, inflammatory: mouse, i.p., dose 16 (HZ-166), 10 (JY-XHE-053), 1 (XLI-JY-DMH) mg/kg; for protection at the acute phase of chemically induced pain / Change (% of Control) ± SEM, T22 Formalin Pain, Acute: acute phase; for Change (% of Control) ± SEM, T22 Formalin Pain, inflammatory: inflammatory phase
Experimental: This elicits a distinct bi-phasic behavioral profile in response to the formalin injection characterized by licking of the affected paw, and the number of licks is measured as a proxy for perceived pain. The first (acute) phase is thought to correspond to the direct stimulation of peripheral fibers while the second (inflammatory) phase is caused by the release of inflammatory mediators from the damaged tissue and nerve endings. Thus, this model is ideally suited for efficacy of an investigational AED against the acute and chronic hyper-responsive neuronal discharges following activation of peripheral nerve fibers.
The results of the formalin test are given both as raw data (“Response”) and in an aggregate, analyzed form (“Analysis”). In the Response section, each Trial involves sixteen animals, eight controls given an i.p. injection of vehicle and eight given the compound at a specified dose. Thus, for multiple doses of the compound, there will also be multiple control groups. The data recorded for each animal is the amount of time(s) spent licking the affected hind paw in a two minute period. These two minute periods occur at five minute intervals and continue for 45 minutes. […] From this plot, we can then determine the area under the curve (AUC) for each animal during both the acute and inflammatory stages. The AUC for each phase is shown in the analysis section of the data sheet for both control and drug-treated animals The AUC for each drug-treated animal is compared to the average result from the control group, yielding an average percent of control (reported with the SEM and p value).

[4] = molecular target: T1, GABAA/α2 (α2β3γ2 GABAA receptor) (Homo sapiens, UniProt P18507+P47869); experiment: competitive binding assay with [3H]flunitrazepam
T1 construct: expressed in transfected cells
Experimental: (§1) Membranes were harvested with a Brandel cell harvester followed by three ice-cold washes onto polyethyleneimine-pretreated (0.3%) Whatman GF/C filters. Filters were dried overnight and then soaked in Ecoscint, a liquid scintillation cocktail (National Diagnostics; Atlanta, Ga.). Bound radioactivity was quantified by liquid scintillation counting. Membrane protein concentrations were determined using an assay kit from Bio-Rad (Hercules, Calif.) with bovine serum albumin as the standard.
as §1, with “The GABAA subunit selectivity of several compounds prepared as described above were determined using competitive binding assays. […] Membranes” for “Membranes”

[5] = molecular target: T2, GABAA/α6 (α6β3γ2 GABAA receptor) (Homo sapiens, UniProt P18507+Q16445); experiment: competitive binding assay with [3H]flunitrazepam
T2 construct: expressed in transfected cells
Experimental: as §1
as §1, with “The GABAA subunit selectivity of several compounds prepared as described above were determined using competitive binding assays. […] Membranes” for “Membranes”

[6] = molecular target: T3, GABAA/α1 (α1β3γ2 GABAA receptor) (Homo sapiens, UniProt P14867+P18507); experiment: competitive binding assay with [3H]flunitrazepam
T3 construct: expressed in transfected cells
Experimental: as §1
as §1, with “The GABAA subunit selectivity of several compounds prepared as described above were determined using competitive binding assays. […] Membranes” for “Membranes”

[7] = molecular target: T4, GABAA/α3 (α3β3γ2 GABAA receptor) (Homo sapiens, UniProt P18507+P34903); experiment: competitive binding assay with [3H]flunitrazepam
T4 construct: expressed in transfected cells
Experimental: as §1
as §1, with “The GABAA subunit selectivity of several compounds prepared as described above were determined using competitive binding assays. […] Membranes” for “Membranes”

[8] = molecular target: T5, GABAA/α5 (α5β3γ2 GABAA receptor) (Homo sapiens, UniProt P18507+P31644); experiment: competitive binding assay with [3H]flunitrazepam
T5 construct: expressed in transfected cells
Experimental: as §1
as §1, with “The GABAA subunit selectivity of several compounds prepared as described above were determined using competitive binding assays. […] Membranes” for “Membranes”

[9] = test system: Sciatic Ligation neuropathic pain; experiment: T23 partial ligation of the sciatic nerve (mechanical allodynia); format: in vivo, rats; details: for Change (% of Control) ± SEM, T23 Sciatic Ligation / Significance, T23 Sciatic Ligation: dose 35.5 (HZ-166), 18 (JY-XHE-053), 1 (XLI-JY-DMH) mg/kg, TPE 2 hr
Experimental: Neuropathic pain. The pro- or antinociceptive effects of the compounds of the present invention are analyzed in two manners. […] Sterile technique will be used throughout the surgery. The upper thigh will be shaved and wiped off with ethanol and betadine. A small incision will then be made in the skin. The underlying muscle of the upper thigh will be separated and the sciatic nerve exposed. The nerve is separated from the surrounding connective tissue and slightly elevated by a pair of fine, curved forceps. Approximately ⅓ to ½ of the nerve is tied off by passing a needle (7.0) and nylon suture through the nerve. The muscle and skin incision are closed off separately with 5.0 suture and the animals kept warm until they have recovered from the anesthesia. This procedure is routinely done on the right side (ipsilateral) while a sham surgery is performed on the left hind leg (contralateral). The latter involves a similar procedure with the exception that the sciatic nerve on this side is only exposed. The rats will be closely monitored daily for the development of infection or untoward effects of the surgery in which case the animals will be immediately euthanized
After an appropriate time for recovery (7 days) the animals will be tested for the development of mechanical allodynia (abnormal response to a non-noxious stimulus). The animals are each put in a bottomless plexiglass box placed on a wire mesh (¼″) platform. After 30-60 minutes in which to acclimate, a baseline mechanical sensitivity is determined. This procedure is done by applying a series of calibrated Von Frey fibres perpendicularly to the plantar surface of each hind paw and holding it there for about 6 secs with enough force to slightly bend the fibre. After a positive response (withdrawal of the foot) is noted a weaker fibre is applied. This is repeated until a 50% threshold for withdrawal can be determined
The allodynic threshold is then redetermined after intraperitoneal administration of an investigational AED. Testing will be conducted at the time-to-peak effect of the AED as determined in the acute seizure model.

[10] = test system: neuropathic pain after CCI of the sciatic nerve; experiment: chronic constriction injury (CCI) model, mechanical sensitization (von Frey filaments); format: in vivo, mice; details: for analgesic effects in the chronic constriction injury model of neuropathic pain: mouse, in vivo
Experimental: In addition, the pro- or antinociceptive effects of the compounds of the present invention are analyzed in the chronic constriction injury (CCI) model. The GABAA receptor subunit selective test compounds of the present invention are analysed in the CCI model in 7-8-week-old C57BL/6 mice. See Bennett, G. J. & Xie, Y. K. A peripheral mononeuropathy in rat that produces disorders of pain sensation like those seen in man. […] Seven to eight week old mice are anesthetized with isofluran. Unilateral constriction injury of the left sciatic nerve just proximal to the trifurcation is performed with three loose ligatures. In sham-operated animals the sciatic nerve is exposed and the connective tissue is freed, but no ligatures are applied. […] Heat hyperalgesia, cold allodynia and mechanical sensitization are assessed 7-9 days after surgery. Mechanical sensitivity is assessed with electronic von Frey filaments (IITC).
Pain studies—Neuropathic pain: HZ166 and gabapentin were analyzed in the chronic constriction injury (CCI) model. Unilateral constriction injury of the left sciatic nerve just proximal to the trifurcation was performed as described previously (Bennett and Xie, 1988). Anesthesia was induced and maintained by 2% isoflurane, combined with oxygen (30%). The sciatic nerve was exposed at the mid-thigh level proximal to the sciatic trifurcation by blunt dissection through the biceps femoris muscle. […] of nerve were freed of adhering tissue and three chromic gut ligatures (4/0) (Ethicon) were loosely put around the nerve with about 1 mm spacing. The ligatures were tied until they elicited a brief twitch in the hindlimb. The surgical wound was closed in layers. Heat hyperalgesia and mechanical sensitization were assessed 7-16 days after surgery.
Pain Studies—Mechanical sensitization: Mechanical sensitivity was assessed with dynamic von Frey filaments (IITC, Woodland Hills, Calif.). 4-5 measurements were made for each time point and animal and averaged. Measurements of paw withdrawal thresholds of the injured paw and of the contralateral paw were made alternately.
Statistical Analysis: For all different doses and vehicle, baseline paw withdrawal thresholds/latencies on day 7 after nerve ligation or on day 2 after zymosan A injection were subtracted from all later withdrawal thresholds and the area under the curve (AUC) was calculated. Drug effects were expressed as percent maximum possible effect (MPE) calculated from comparisons of paw withdrawal latencies or thresholds obtained prior to surgery or inflammation and before and after drug treatment. […] Unless otherwise indicated, statistical comparisons were made with one-way analysis of variance (ANOVA) followed by Scheffe's post hoc test. P values<0.05 were considered significant.

[11] = Binding Affinity at GABAA/α2, Table 3
[12] = Binding Affinity at GABAA/α1, Table 3
[13] = Binding Affinity at GABAA/α3, Table 3
[14] = Binding Affinity at GABAA/α5, Table 3
[15] = Table 3, read-out: Binding Affinity at GABAA/α2
[16] = Table 3, read-out: Binding Affinity at GABAA/α1
[17] = Table 3, read-out: Binding Affinity at GABAA/α3
[18] = Table 3, read-out: Binding Affinity at GABAA/α5

SMILES	pKi [4, 11]	pKi [5]	pKi [6, 12]	pKi [7, 13]	pKi [8, 14]	pKi [4, 15]	pKi [6, 16]	pKi [7, 17]	pKi [8, 18]	Change (% of Control) ± SEM, T23 Sciatic Ligation [9]	Significance, T23 Sciatic Ligation [9]	analgesic effects in the chronic constriction injury model of neuropathic pain [10]	protection at the acute phase of chemically induced pain [3]	Change (% of Control) ± SEM, T22 Formalin Pain, Acute [3]	Change (% of Control) ± SEM, T22 Formalin Pain, inflammatory [3]	further results
CN1C(=O)CN=C(c2ccccc2)c2cc(Cl)ccc21 [Diazepam, diazepam]	–	–	–	–	–	–	–	–	–	–	–	–	–	–	–	potentiation of GABA induced currents ([1]; wild-type mice, mean±SEM, n=11): 150.1±7.54%; potentiation of GABA induced currents ([1]; α1 mutant mice): 165±22.3%; potentiation of GABA induced currents ([1]; α2 mutant mice): 106.9±3.6%; potentiation of GABA induced currents ([1]; α3 mutant mice): 102.5±6.6%; potentiation of GABA induced currents ([1]; α5 mutant mice): 126±13.0%; anxiolytic effect (conflict model) ([2]; intravenously in propylene glycol/water): anxiolytic; level of pain response ([3]; mouse formalin test and model of sciatic nerve ligation): strongly reduced
CCOC(=O)c1ncn2c1CN=C(c1ccccc1)c1cc(I)ccc1-2 [HZ 120, Ethyl 8-iodo-6-phenyl-4H-benzo[f]imidazo[1,5-a][1,4]diazepine-3-carboxylate]	7.46	7.49	< 5.30	7.11	7.69	–	–	–	–	–	–	–	–	–	–	–
C#Cc1ccc2c(c1)C(c1ccccc1F)=NCc1c(C(=O)OCC)ncn1-2 [JY-XHE-053, 8-Acetyleno-6-(2′-fluorophenyl)-4H-benzo[f]imidazo[1,5-a][1,4]diazepine-3-carboxylate]	–	–	–	–	–	7.91	7.66	7.46	9.17	132 ± 7 % of Control	yes	analgesic effects	insignificant	98.41 % of Control	84.58 % of Control	dose at which anxiolytic ([2]; intravenously): greater than 0.13 mg/kg; analgesic effect, mechanical sensitivity (von Frey) in CCI model ([10]; 8 mg/kg and 30 mg/kg i.p.): significant analgesic effect
C#Cc1ccc2c(c1)C(c1ccccc1)=NCc1c(-c3nc(CC)no3)ncn1-2 [PS-I-26]	6.44	< 5.30	6.03	6.59	6.41	–	–	–	–	–	–	–	–	–	–	–
C#Cc1ccc2c(c1)C(c1ccccc1Cl)=NCc1nnc(C)n1-2 [XLI-JY-DMH, 8-Acetyleno-5-(2′-chlorophenyl)-1-methyl-4H-s-triazolo-[4,3-a]-1,4-benzodiazepine]	–	–	–	–	–	9.24	8.48	8.72	8.36	136 % of Control	no	analgesic effects	insignificant	87.6 % of Control	111.9 % of Control	pKi ([5]; Table 3, read-out: Binding Affinity at GABAA/α6): < 5.30; protection against neuropathic pain caused by sciatic ligation ([9]; T23 sciatic ligation): insignificant
